In patent publication US7053107B2, “Indazole compounds and pharmaceutical compositions for inhibiting protein kinases, and methods for their use” (Agouron Pharmaceuticals, Inc., priority 2002, dated 2006):

Target: T1, phosphorylated VEGF-R2Δ50 (Homo sapiens, UniProt P35968, DEL940-989/E990V)
T1 construct: VEGF-R2Δ50 contains residues 806–939 and 990–1171; made in house; host or cells: baculovirus/insect cell system
Assay: VEGF-R2 coupled spectrophotometric (FLVK-P) assay, phosphorylated construct
Assay type: biochemical
Settings: Ki (nM)
Source text: This construct determines the ability of a test compound to inhibit tyrosine kinase activity. A construct (VEGF-R2Δ50) of the cytosolic domain of human vascular endothelial growth factor receptor 2 (VEGF-R2) lacking the 50 central residues of the 68 residues of the kinase insert domain was expressed in a baculovirus/insect cell system. Of the 1356 residues of full-length VEGF-R2, VEGF-R2Δ50 contains residues 806–939 and 990–1171, and also one point mutation (E99OV) within the kinase insert domain relative to wild-type VEGF-R2. Autophosphorylation of the purified construct was performed by incubation of the enzyme at a concentration of 4 μM in the presence of 3 mM ATP and 40 mM MgCl2 in 100 mM HEPES, pH 7.5, containing 5% glycerol and 5 mM DTT, at 4° C. for 2 h. […] See Parast et al., Biochemistry, 37,16788–16801 (1998).
The production of ADP from ATP that accompanies phosphoryl transfer was coupled to oxidation of NADH using phosphoenolpyruvate (PEP) and a system having pyruvate kinase (PK) and lactic dehydrogenase (LDH). The oxidation of NADH was monitored by following the decrease of absorbance at 340 nm (e340=6.22 cm^−1 mM^−1) using a Beckman DU 650 spectrophotometer. […] Ki values were determined by measuring enzyme activity in the presence of varying concentrations of test compounds. The data were analyzed using Enzyme Kinetic and Kaleidagraph software.

T1 sequence (P35968 with tags, fused parts or gaps DEL940-989/E990V limits assumed): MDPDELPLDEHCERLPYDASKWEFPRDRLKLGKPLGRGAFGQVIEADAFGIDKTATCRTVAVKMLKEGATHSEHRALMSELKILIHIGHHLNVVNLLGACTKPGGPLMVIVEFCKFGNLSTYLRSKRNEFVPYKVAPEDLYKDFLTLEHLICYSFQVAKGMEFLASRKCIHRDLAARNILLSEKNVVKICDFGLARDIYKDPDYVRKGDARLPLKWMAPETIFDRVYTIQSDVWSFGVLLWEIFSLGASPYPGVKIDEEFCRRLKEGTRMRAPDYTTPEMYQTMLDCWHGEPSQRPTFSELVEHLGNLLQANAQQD

Ki: 6.07 nM
Compound: Cc1cc(C)nc(/C=C/c2n[nH]c3cc(Nc4ccccc4C(=O)NCC#CCO)ccc23)c1 [Example 10, 2-{3-[(E)-2-(4,6-Dimethyl-pyridin-2-yl)-vinyl]-1H-indazol-6-ylamino}-N-(4-hydroxy-but-2-ynyl)-benzamide]
